From patent US8993574B2, “Pyrrole antifungal agents” (F2G Ltd, priority 2008, dated 2015)
≈ marks a conversion by molar mass, not a printed value. One block for each compound: values may come before it.

Experiments:
Assay type in all cases: cell-based
Aspergillus terreus AT4 [1] = test: MIC, RPMI medium; conditions: for MIC: Aspergillus terreus, AT4, MIC banded into grades, read-out: MIC grade, A. terreus
Method in brief: (§1)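 MIC taken as lowest drug level inhibiting growth by >80% relative to drug-free wells, read as OD at 485 nm after 24-48 h at 35° C. Organisms at 1−2×10^4 cfu/mL in RPMI (2% glucose, 0.135 M MOPS, pH 7.0) exposed to doubling dilutions spanning 50-0.05 mg/L.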

Aspergillus flavus [2] = test: MIC, RPMI medium; conditions: MIC banded into grades; for MIC: Aspergillus flavus, read-out: MIC grade, A. flavus
Method in brief: as §1

Aspergillus terreus AT49 [3] = test: MIC, RPMI medium; conditions: for MIC: Aspergillus terreus, AT49, MIC banded into grades, read-out: MIC grade, A. terreus 49
Method in brief: as §1

Aspergillus niger [4] = test: MIC, RPMI medium; conditions: MIC banded into grades; for MIC: Aspergillus niger, read-out: MIC grade, A. niger
Method in brief: as §1

[5] = system: Aspergillus fumigatus AF293; test: MIC, RPMI medium; conditions: for MIC: Aspergillus fumigatus, AF293, MIC banded into grades, read-out: MIC grade, A. fumigatus
Method in brief: as §1

[6] = system: Aspergillus fumigatus AF210; test: MIC, RPMI medium; conditions: for MIC: Aspergillus fumigatus, AF210, MIC banded into grades, read-out: MIC grade, A. fumigatus 210
Method in brief: as §1

Aspergillus terreus AT4 [7] = test: MIC, YAG medium; conditions: 24 h at 35° C, MIC banded into grades; for MIC: Aspergillus terreus, read-out: MIC grade, A. terreus
Method in brief: (§2)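 Endpoint is growth at OD 485 nm after 24 h at 35° C, with MIC defined as the lowest drug level giving >70% inhibition relative to untreated wells and recorded in mg/L. Tests ran in YAG broth with 1−2×10^4 cfu/mL spore inocula from Sabouraud-grown cultures. Drug ranges were 50-0.05 mg/L, repeated at 0.5-0.0005 mg/L when needed.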

Aspergillus flavus [8] = test: MIC, YAG medium; conditions: 24 h at 35° C, MIC banded into grades; for MIC: Aspergillus flavus, 24 h, read-out: MIC grade, A. flavus
Method in brief: as §2

Aspergillus terreus AT49 [9] = test: MIC, YAG medium; conditions: 24 h at 35° C, MIC banded into grades; for MIC: Aspergillus terreus, read-out: MIC grade, A. terreus 49
Method in brief: as §2

Aspergillus niger [10] = test: MIC, YAG medium; conditions: 24 h at 35° C, MIC banded into grades; for MIC: Aspergillus niger, read-out: MIC grade, A. niger
Method in brief: as §2

[11] = system: Aspergillus fumigatus AF293; test: MIC, YAG medium; conditions: 24 h at 35° C, MIC banded into grades; for MIC: Aspergillus fumigatus, read-out: MIC grade, A. fumigatus
Method in brief: as §2

[12] = system: Aspergillus fumigatus AF210; test: MIC, YAG medium; conditions: 24 h at 35° C, MIC banded into grades; for MIC: Aspergillus fumigatus, read-out: MIC grade, A. fumigatus 210
Method in brief: as §2

SMILES: COCCn1c(C)cc(-c2ccccc2)c1C(=O)C(=O)Nc1ccc(N2CCN(CC(C)C)CC2)cc1F [Example 110, N-[2-Fluoro-4-(4-isobutyl-piperazin-1-yl)-phenyl]-2-[1-(2-methoxy-ethyl)-5-methyl-3-phenyl-1H-pyrrol-2-yl]-2-oxo-acetamide]
- MIC (Aspergillus terreus AT4 [1]): < 1 µg/mL
- MIC (Aspergillus flavus [2]): 1 to 10 µg/mL (≈ 1.92 to 19.2 µM)
- MIC (Aspergillus terreus AT49 [3]): < 1 µg/mL
- MIC (Aspergillus niger [4]): 1 to 10 µg/mL (≈ 1.92 to 19.2 µM)
- MIC [5]: < 1 µg/mL
- MIC [6]: < 1 µg/mL
- MIC (Aspergillus terreus AT4 [7]): < 1 µg/mL
- MIC (Aspergillus flavus [8]): 1 to 10 µg/mL (≈ 1.92 to 19.2 µM)
- MIC (Aspergillus terreus AT49 [9]): 1 to 10 µg/mL (≈ 1.92 to 19.2 µM)
- MIC (Aspergillus niger [10]): < 1 µg/mL
- MIC [11]: < 1 µg/mL
- MIC [12]: < 1 µg/mL

SMILES: COC(=O)Cn1c(C)cc(-c2ccccc2)c1C(=O)C(=O)Nc1ccc(N2CCN(c3cc(C)cc(C)n3)CC2)cc1F [Example 111, (2-{4-[4-(4,6-Dimethyl-pyridin-2-yl)-piperazin-1-yl]-2-fluoro-phenylaminooxalyl}-5-methyl-3-phenyl-pyrrol-1-yl)-acetic acid methyl ester]
- MIC grade, A. terreus (Aspergillus terreus AT4 [1]; MIC banded into grades): 3 (A grade of 3 represents an MIC of less than 1 mg/L)
- MIC grade, A. flavus (Aspergillus flavus [2]): 2 (A grade of 2 represents an MIC of from 1 to 10 mg/L)
- MIC grade, A. terreus 49 (Aspergillus terreus AT49 [3]; MIC banded into grades): 2 (A grade of 2 represents an MIC of from 1 to 10 mg/L)
- MIC grade, A. niger (Aspergillus niger [4]): 3 (A grade of 3 represents an MIC of less than 1 mg/L)
- MIC grade, A. fumigatus ([5]; MIC banded into grades): 3 (A grade of 3 represents an MIC of less than 1 mg/L)
- MIC grade, A. fumigatus 210 ([6]; MIC banded into grades): 3 (A grade of 3 represents an MIC of less than 1 mg/L)
- MIC grade, A. terreus (Aspergillus terreus AT4 [7]): 3 (A grade of 3 represents an MIC of less than 1 mg/L)
- MIC grade, A. flavus (Aspergillus flavus [8]): 2 (A grade of 2 represents an MIC of from 1 to 10 mg/L)
- MIC grade, A. terreus 49 (Aspergillus terreus AT49 [9]): 3 (A grade of 3 represents an MIC of less than 1 mg/L)
- MIC grade, A. niger (Aspergillus niger [10]): 3 (A grade of 3 represents an MIC of less than 1 mg/L)
- MIC grade, A. fumigatus [11]: 3 (A grade of 3 represents an MIC of less than 1 mg/L)
- MIC grade, A. fumigatus 210 [12]: 3 (A grade of 3 represents an MIC of less than 1 mg/L)

SMILES: Cc1cc(-c2ccccc2)c(C(=O)C(=O)Nc2ccc(N3CCN(CC(C)(C)C)CC3)cc2F)n1C [Example 112, 2-(1,5-Dimethyl-3-phenyl-1H-pyrrol-2-yl)-N-{4-[4-(2,2-dimethyl-propyl)-piperazin-1-yl]-2-fluoro-phenyl}-2-oxo-acetamide]
- MIC (Aspergillus terreus AT4 [1]): < 1 µg/mL
- MIC (Aspergillus flavus [2]): < 1 µg/mL
- MIC (Aspergillus terreus AT49 [3]): < 1 µg/mL
- MIC (Aspergillus niger [4]): < 1 µg/mL
- MIC [5]: < 1 µg/mL
- MIC [6]: < 1 µg/mL
- MIC (Aspergillus terreus AT4 [7]): < 1 µg/mL
- MIC (Aspergillus flavus [8]): < 1 µg/mL
- MIC (Aspergillus terreus AT49 [9]): < 1 µg/mL
- MIC (Aspergillus niger [10]): < 1 µg/mL
- MIC [11]: < 1 µg/mL
- MIC [12]: < 1 µg/mL

Results, then the compound that gave them:

- MIC (Aspergillus terreus AT4 [1]): < 1 µg/mL
- MIC (Aspergillus flavus [2]): < 1 µg/mL
- MIC (Aspergillus terreus AT49 [3]): < 1 µg/mL
- MIC (Aspergillus niger [4]): < 1 µg/mL
- MIC [5]: < 1 µg/mL
- MIC [6]: < 1 µg/mL
- MIC (Aspergillus terreus AT4 [7]): < 1 µg/mL
- MIC (Aspergillus flavus [8]): < 1 µg/mL
- MIC (Aspergillus terreus AT49 [9]): < 1 µg/mL
- MIC (Aspergillus niger [10]): < 1 µg/mL
- MIC [11]: < 1 µg/mL
- MIC [12]: < 1 µg/mL
SMILES: Cc1cc(-c2ccccc2)c(C(=O)C(=O)Nc2ccc(N3CCCCC3)c(F)c2)n1C [Example 115, 2-(1,5-Dimethyl-3-phenyl-1H-pyrrol-2-yl)-N-(3-fluoro-4-piperidin-1-yl-phenyl)-2-oxo-acetamide]

- MIC (Aspergillus terreus AT4 [1]): < 1 µg/mL
- MIC (Aspergillus flavus [2]): > 10 µg/mL
- MIC (Aspergillus terreus AT49 [3]): < 1 µg/mL
- MIC (Aspergillus niger [4]): < 1 µg/mL
- MIC [5]: < 1 µg/mL
- MIC [6]: < 1 µg/mL
- MIC (Aspergillus terreus AT4 [7]): < 1 µg/mL
- MIC (Aspergillus flavus [8]): < 1 µg/mL
- MIC (Aspergillus terreus AT49 [9]): < 1 µg/mL
- MIC (Aspergillus niger [10]): < 1 µg/mL
- MIC [11]: < 1 µg/mL
- MIC [12]: < 1 µg/mL
SMILES: Cc1cc(-c2ccccc2)c(C(=O)C(=O)Nc2ccc(N3CCN(c4ccccn4)CC3)c(F)c2)n1C [Example 116, 2-(1,5-Dimethyl-3-phenyl-1H-pyrrol-2-yl)-N-[3-fluoro-4-(4-pyridin-2-yl-piperazin-1-yl)-phenyl]-2-oxo-acetamide]

- MIC (Aspergillus terreus AT4 [1]): 1 to 10 µg/mL (≈ 2.15 to 21.5 µM)
- MIC (Aspergillus flavus [2]): > 10 µg/mL
- MIC (Aspergillus terreus AT49 [3]): > 10 µg/mL
- MIC (Aspergillus niger [4]): < 1 µg/mL
- MIC [5]: 1 to 10 µg/mL (≈ 2.15 to 21.5 µM)
- MIC [6]: 1 to 10 µg/mL (≈ 2.15 to 21.5 µM)
- MIC (Aspergillus terreus AT4 [7]): < 1 µg/mL
- MIC (Aspergillus flavus [8]): < 1 µg/mL
- MIC (Aspergillus terreus AT49 [9]): < 1 µg/mL
- MIC (Aspergillus niger [10]): < 1 µg/mL
- MIC [11]: < 1 µg/mL
- MIC [12]: 1 to 10 µg/mL (≈ 2.15 to 21.5 µM)
SMILES: COCCn1c(C)cc(-c2ccccc2)c1C(=O)C(=O)Nc1ccc(N2CCOCC2)cc1F [Example 117, N-(2-Fluoro-4-morpholin-4-yl-phenyl)-2-[1-(2-methoxy-ethyl)-5-methyl-3-phenyl-1H-pyrrol-2-yl]-2-oxo-acetamide]
